pEC50: −log10 of the molar value. Entries after “also recorded” stand apart in the source; their conditions may differ.

In test [1] the test system is MC3T3-E1 cells. Format: cell-based, Murine. To be noted: OIM, 4 days.
The next test deals with AEP. Put plainly: AEP activity assay on MC3T3-E1 cell lysates. The format is cell-based, Murine. As to conditions: MC3T3 cells in OIM; substrate Z-Ala-Ala-Asn-AMC. As for the experimental part:
Cell lysates (10 μg) were incubated in 200 μl assay buffer (20 mM citric acid, 60 mM Na2HPO4, 1 mM EDTA, 0.1% CHAPS, and 1 mM DTT, pH 6.0) containing 20 μM δ-secretase substrate Z-Ala-Ala-Asn-AMC (Bachem, Bubendorf, Switzerland). AMC released by substrate cleavage was quantified by measuring at 460 nm in a fluorescence plate reader at 37° C. for 2 h in kinetic mode.

In another test the test system is TrkB. As to conditions: primary neurons; read-out: EC50 for activating TrkB; cited from earlier work.
For test [2], the system named is MC3T3-E1 cells. To be noted: OIM.
Procedure: MC3T3-E1 cells were seeded onto plates in complete medium and cultured for 24 days, until the cells reached 70% confluence.
MC3T3-E1 and RAW 264.7 cells were washed with ice-cold PBS and lysed in (50 mM Tris, pH 7.4, 40 mM NaCl, 1 mM EDTA, 0.5% Triton X-100, 1.5 mM Na3VO4, 50 mM NaF, 10 mM sodium pyrophosphate, 10 mM sodium β-glycerophosphate, supplemented with protease inhibitor cocktail) at 4° C. for 0.5 h, and centrifuged for 25 min at 15,000 rpm. The supernatant was boiled in SDS loading buffer. After SDS-PAGE, the samples were transferred to a nitrocellulose membrane. The membrane was blocked with TBS containing 5% nonfat milk and 0.1% Tween 20 (TBST) at room temperature for 2 hours, followed by the incubation with primary antibody at 4° C. overnight, and with the secondary antibody at room temperature for 2 hours. After washing with TBST, the membrane was developed using the enhanced chemiluminescent (ECL) detection system.
To further interrogate the molecular mechanism of 7,8-DHF in promoting OPG expression, a time course study in MC3T3-E1 cells in the presence of OIM was conducted.
Test [3] has as its system MC3T3-E1 cells. As to the kind of experiment: ELISA of OPG and RANK-L secreted into the medium of MC3T3 cells. As to conditions: OIM; vs OIM alone. Format: cell-based, Murine. The text has this:
FIG. 9, Panel A contains representative images of ALP staining in […] cells treated with BDNF or 7,8-DHF combined with or without K252a for 14 days (n=3 independent experiments) (Scale bar, 5 mm (upper panel), 200 μm (lower panel)). […] FIG. 9, Panel C contains Western blots for MC3T3 cells cultured in complete medium or osteogenic induction medium (OIM) with BDNF or 7,8 DHF combined with or without K252a for 4 days. […] FIG. 9, Panel D contains graphs of the relative protein levels of C/EBPP, p-C/EBPβ, AEP, RANK-L, OPG, Osterix, p-TrkB/TrkB and p-Akt/AKT in MC3T3 cells cultured in the complete medium or OIM with BDNF or 7,8-DHF combined with or without K252a for four days. Data are shown as mean±SEM of three independent experiments, one-way ANOVA. Data are shown in each graph from left to right as 1) Control, 2) OIM+DMSO, 3) OIM+BDNF, 4) OIM+7,8-DHF, 5) OIM+BDNF+K252a, and 6) OIM+7,8-DHF+K252a. FIG. 9, Panel E contains graphs of an AEP enzymatic activity assay. BDNF and 7,8-DHF inhibit AEP activities, and K252a abolish BDNF and 7,8-DHF's effects. Data are shown as mean±SEM of 3 independent experiments, one-way ANOVA. Data are shown in each graph from left to right as 1) Control, 2) OIM+DMSO, 3) OIM+BDNF, 4) OIM+7,8-DHF, 5) OIM+BDNF+K252a, and 6) OIM+7,8-DHF+K252a. FIG. 9, Panel F contains graphs of qPCR results showing that OPG mRNA expression increases in MC3T3 cells after 7,8-DHF treatment for four days. Data are shown as mean±SEM of three independent experiments, one-way ANOVA. Data are shown in each graph from left to right as 1) Control, 2) OIM+DMSO, 3) OIM+BDNF, 4) OIM+7,8-DHF, 5) OIM+BDNF+K252a, and 6) OIM+7,8-DHF+K252a. FIG. 9, Panel G contains graphs showing that 7,8-DHF increases OPG and decreases the RANK-L/OPG ratio. Levels of OPG and RANK-L proteins secreted into the medium were measured by ELISA. Data are shown as mean±SEM of 3 independent experiments, one-way ANOVA. Data are shown in each graph from left to right as 1) Control, 2) OIM+DMSO, 3) OIM+BDNF, 4) OIM+7,8-DHF, 5) OIM+BDNF+K252a, and 6) OIM+7,8-DHF+K252a.

In test [4] the test system is MC3T3-E1 cells. The format is cell-based, Murine. As to conditions: OIM, four days. As to the method:
Total RNA was isolated by TRIzol (Life Technologies, Carlsbad, Calif.). Reverse transcription was performed with SuperScript III reverse transcriptase (Life Technologies). Gene-specific primers and probes were designed and bought from Taqman (Life Technologies). All real-time PCR reactions were performed using the ABI 7500-Fast Real-Time PCR System and the Taqman Universal Master Mix Kit (Life Technologies). The relative quantification of gene expression was calculated using the ΔΔCt method. Predesigned real-time PCR primers from Applied Biosystems (Waltham, Mass.) were used for the analysis of Opg (Tnfrsf11b; Mm0043545_m1), RANK-L (Tnfsf11; Mm00441908_m1), AEP (Lgmn; Mm01325350_m1), GAPDH (Gapdh; Mm99999915_g1).

A further test concerns BDNF/TrkB signaling. As to the kind of experiment: Immunoblotting of p-TrkB signaling in bone marrow after oral R13. Format: in vivo, mice. To be noted: R13-derived 7,8-DHF after oral administration of R13.

With `O=c1cc(-c2ccccc2)oc2c(O)c(O)ccc12` [7,8-DHF], in the test with MC3T3-E1 cells [1], the AEP expression entry is reported as “diminished” and the “RANK-L protein (Western blot)” value is on record as “augmentation”. In addition, the AEP protease activities result with AEP was “greatly blocked; also recorded: inhibit”. In addition, the pEC50 with TrkB is approximately 7.30. Also, the “CREB or c-Jun levels” value with MC3T3-E1 cells [2] (siRNA experiment) was “without interfering”. For the same compound, in the test on MC3T3-E1 cells [2] (time course 0-60 min), the p-Akt entry is listed as “activated”, the p-C/EBPβ signal result is on record as “time-dependently increased”, the p-CREB signal result is on record as “time-dependently increased” and the p-MAPK entry is reported as “activated”. Besides, in the test with MC3T3-E1 cells [2] (time course 0-60 min), the p-TrkB result is on record as “activated” and the p-c-Jun signal entry is reported as “time-dependently increased”. Further, in the test with MC3T3-E1 cells [3], the “OPG protein secreted into the medium” value is given as “further augmented; also recorded: increases”; the “RANK-L protein secreted into the medium” value is recorded as “further augmented”; the “RANK-L/OPG ratio (ELISA)” value was “OIM alone were significantly higher than BDNF and 7,8-DHF; also recorded: decreases”. Further, in the test on MC3T3-E1 cells [4], the “RANK-L mRNA” value is “elevated”. In the test on BDNF/TrkB signaling, the “BDNF/TrkB signaling in the bone marrow (p-TrkB, AKT, MAPK phosphorylation)” value was “activates”.

The values above are taken from patent US20230046078A1, “METHODS OF USING SUBSTITUTED FLAVONES FOR TREATING BONE DISORDERS” (EMORY UNIVERSITY, priority 2021, published 2023).
